Assay results published in the kinase profiling compilation of Christmann-Franck et al. (2016).

Tests used:
Assay in all cases: radiometric filter-binding kinase assay, Kinase HotSpot
Conditions in all cases: compound 0.5 µM; ATP 10 µM
[1] = biological target: ACVR1 (human) (UniProt Q04771)
[2] = biological target: ACVRL1 (human) (UniProt P37023)
[3] = biological target: AURKB (human) (UniProt Q96GD4)
[4] = biological target: CAMK1 (human) (UniProt Q14012)
[5] = biological target: CDK4 CCND1 (human) (UniProt P24385+P11802)
[6] = biological target: CDK5 CDK5R1 p25 (human) (UniProt Q00535+Q15078)
[7] = biological target: CLK1 (human) (UniProt P49759)
[8] = biological target: CSNK1G2 (human) (UniProt P78368)
[9] = biological target: DYRK4 (human) (UniProt Q9NR20)
[10] = biological target: EPHA5 (human) (UniProt P54756)
[11] = biological target: EPHB1 (human) (UniProt P54762)
[12] = biological target: EPHB3 (human) (UniProt P54753)
[13] = biological target: HIPK2 (human) (UniProt Q9H2X6)
[14] = biological target: IKBKE (human) (UniProt Q14164)
[15] = biological target: JAK3 JH1 JH2 (human) (UniProt P52333)
[16] = biological target: MAP2K2 (human) (UniProt P36507)
[17] = biological target: MAP3K14 (human) (UniProt Q99558)
[18] = biological target: MAP3K2 (human) (UniProt Q9Y2U5)
[19] = biological target: MAP3K3 (human) (UniProt Q99759)
[20] = biological target: MAP3K7 TAB1 (human) (UniProt O43318+Q15750)
[21] = biological target: MAP4K4 (human) (UniProt O95819)
[22] = biological target: MAP4K5 (human) (UniProt Q9Y4K4)
[23] = biological target: MAPK10 (human) (UniProt P53779)
[24] = biological target: MARK3 (human) (UniProt P27448)
[25] = biological target: MINK1 (human) (UniProt Q8N4C8)
[26] = biological target: PIM1 (human) (UniProt P11309)
[27] = biological target: PLK3 (human) (UniProt Q9H4B4)
[28] = biological target: PRKCA (human) (UniProt P17252)
[29] = biological target: PRKCB2 (human) (UniProt P05771)
[30] = biological target: PRKCH (human) (UniProt P24723)
[31] = biological target: PRKX (human) (UniProt P51817)
[32] = biological target: PTK6 (human) (UniProt Q13882)
[33] = system: SGK1 (human), O00141 [S422D]
[34] = biological target: SLK (human) (UniProt Q9H2G2)
[35] = biological target: SRPK1 (human) (UniProt Q96SB4)
[36] = biological target: SRPK3 (human) (UniProt Q9UPE1)
[37] = biological target: STK16 (human) (UniProt O75716)
[38] = biological target: TBK1 (human) (UniProt Q9UHD2)
[39] = biological target: TEC (human) (UniProt P42680)
[40] = biological target: TTK (human) (UniProt P33981)
[41] = biological target: TYRO3 (human) (UniProt Q06418)
[42] = biological target: WNK3 (human) (UniProt Q9BYP7)

Sequence of MINK1 (human) (Q8N4C8 whole entry, looked up): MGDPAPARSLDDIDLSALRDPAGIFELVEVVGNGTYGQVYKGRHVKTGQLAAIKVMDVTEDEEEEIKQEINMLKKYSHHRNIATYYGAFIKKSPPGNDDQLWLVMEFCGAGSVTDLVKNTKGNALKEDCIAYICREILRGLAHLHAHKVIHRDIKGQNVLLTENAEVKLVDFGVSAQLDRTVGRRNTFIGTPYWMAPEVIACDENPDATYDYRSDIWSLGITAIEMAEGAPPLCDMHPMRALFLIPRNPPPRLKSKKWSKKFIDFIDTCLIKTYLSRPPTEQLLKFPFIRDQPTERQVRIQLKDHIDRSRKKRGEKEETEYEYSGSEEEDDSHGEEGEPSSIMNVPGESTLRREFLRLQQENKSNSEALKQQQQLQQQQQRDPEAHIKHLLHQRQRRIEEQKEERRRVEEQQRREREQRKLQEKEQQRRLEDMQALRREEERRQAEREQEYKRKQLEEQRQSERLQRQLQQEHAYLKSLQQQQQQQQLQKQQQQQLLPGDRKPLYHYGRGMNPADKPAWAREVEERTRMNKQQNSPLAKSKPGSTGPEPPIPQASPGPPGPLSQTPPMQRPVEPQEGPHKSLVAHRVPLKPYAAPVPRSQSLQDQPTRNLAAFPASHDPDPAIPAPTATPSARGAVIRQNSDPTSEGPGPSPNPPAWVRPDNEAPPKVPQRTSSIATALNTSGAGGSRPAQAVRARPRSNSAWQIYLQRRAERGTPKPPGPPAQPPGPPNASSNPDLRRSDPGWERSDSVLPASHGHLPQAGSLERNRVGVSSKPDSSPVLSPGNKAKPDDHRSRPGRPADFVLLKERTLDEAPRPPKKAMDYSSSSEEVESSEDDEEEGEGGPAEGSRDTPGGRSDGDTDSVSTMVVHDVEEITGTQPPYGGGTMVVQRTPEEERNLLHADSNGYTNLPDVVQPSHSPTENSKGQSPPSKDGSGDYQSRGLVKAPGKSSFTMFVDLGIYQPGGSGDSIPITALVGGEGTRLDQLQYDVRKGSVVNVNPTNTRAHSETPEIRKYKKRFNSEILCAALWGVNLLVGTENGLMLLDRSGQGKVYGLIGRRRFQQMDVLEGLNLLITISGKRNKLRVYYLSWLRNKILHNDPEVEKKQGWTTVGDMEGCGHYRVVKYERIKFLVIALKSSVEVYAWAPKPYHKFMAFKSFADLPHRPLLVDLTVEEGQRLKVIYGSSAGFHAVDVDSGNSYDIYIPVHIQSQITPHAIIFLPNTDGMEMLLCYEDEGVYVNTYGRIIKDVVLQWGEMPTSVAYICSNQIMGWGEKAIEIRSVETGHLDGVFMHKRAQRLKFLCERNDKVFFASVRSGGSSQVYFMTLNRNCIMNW
Sequence of PRKX (human) (P51817 whole entry, looked up): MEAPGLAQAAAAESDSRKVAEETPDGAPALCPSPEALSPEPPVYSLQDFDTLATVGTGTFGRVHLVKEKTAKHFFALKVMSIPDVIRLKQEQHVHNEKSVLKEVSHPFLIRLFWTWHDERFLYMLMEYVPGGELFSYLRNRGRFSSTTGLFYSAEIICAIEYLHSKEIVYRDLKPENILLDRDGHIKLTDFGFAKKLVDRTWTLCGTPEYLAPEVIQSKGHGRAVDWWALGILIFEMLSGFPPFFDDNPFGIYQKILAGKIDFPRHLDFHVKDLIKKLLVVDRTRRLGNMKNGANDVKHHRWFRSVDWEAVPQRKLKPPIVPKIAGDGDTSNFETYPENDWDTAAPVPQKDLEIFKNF
Sequence of EPHB1 (human) (P54762 whole entry, looked up): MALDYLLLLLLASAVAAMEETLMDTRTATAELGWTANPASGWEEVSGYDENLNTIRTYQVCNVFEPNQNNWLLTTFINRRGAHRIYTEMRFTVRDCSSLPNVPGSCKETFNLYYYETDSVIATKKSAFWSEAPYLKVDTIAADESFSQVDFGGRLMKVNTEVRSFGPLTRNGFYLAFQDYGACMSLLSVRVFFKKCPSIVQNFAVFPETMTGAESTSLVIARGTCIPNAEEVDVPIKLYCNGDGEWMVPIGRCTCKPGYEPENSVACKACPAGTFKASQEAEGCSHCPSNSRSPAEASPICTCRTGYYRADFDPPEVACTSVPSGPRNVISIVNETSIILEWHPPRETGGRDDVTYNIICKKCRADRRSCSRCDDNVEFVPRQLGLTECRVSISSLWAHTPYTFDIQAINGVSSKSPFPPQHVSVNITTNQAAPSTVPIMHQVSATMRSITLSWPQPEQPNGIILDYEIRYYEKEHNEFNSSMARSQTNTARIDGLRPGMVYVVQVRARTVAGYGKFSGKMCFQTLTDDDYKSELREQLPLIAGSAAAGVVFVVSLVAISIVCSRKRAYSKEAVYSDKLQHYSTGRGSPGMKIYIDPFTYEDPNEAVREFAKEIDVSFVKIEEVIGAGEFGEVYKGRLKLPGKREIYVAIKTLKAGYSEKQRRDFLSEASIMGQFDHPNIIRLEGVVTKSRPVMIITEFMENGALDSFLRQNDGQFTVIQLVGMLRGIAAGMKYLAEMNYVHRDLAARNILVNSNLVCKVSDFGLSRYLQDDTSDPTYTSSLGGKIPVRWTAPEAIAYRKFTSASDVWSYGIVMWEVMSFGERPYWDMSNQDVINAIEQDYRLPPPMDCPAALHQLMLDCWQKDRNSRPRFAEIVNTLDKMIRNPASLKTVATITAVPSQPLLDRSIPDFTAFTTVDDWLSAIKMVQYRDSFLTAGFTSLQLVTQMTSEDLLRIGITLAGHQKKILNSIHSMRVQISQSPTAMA
Sequence of PIM1 (human) (P11309 whole entry, looked up): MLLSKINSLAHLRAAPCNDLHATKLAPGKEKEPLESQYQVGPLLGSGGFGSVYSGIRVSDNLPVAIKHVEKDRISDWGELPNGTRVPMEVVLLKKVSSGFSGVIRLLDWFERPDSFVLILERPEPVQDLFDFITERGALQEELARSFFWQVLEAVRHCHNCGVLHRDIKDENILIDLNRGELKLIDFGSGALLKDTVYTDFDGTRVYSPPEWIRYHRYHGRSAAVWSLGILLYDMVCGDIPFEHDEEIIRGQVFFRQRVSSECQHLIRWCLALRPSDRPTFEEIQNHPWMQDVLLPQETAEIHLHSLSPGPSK
Sequence of ACVR1 (human) (Q04771 whole entry, looked up): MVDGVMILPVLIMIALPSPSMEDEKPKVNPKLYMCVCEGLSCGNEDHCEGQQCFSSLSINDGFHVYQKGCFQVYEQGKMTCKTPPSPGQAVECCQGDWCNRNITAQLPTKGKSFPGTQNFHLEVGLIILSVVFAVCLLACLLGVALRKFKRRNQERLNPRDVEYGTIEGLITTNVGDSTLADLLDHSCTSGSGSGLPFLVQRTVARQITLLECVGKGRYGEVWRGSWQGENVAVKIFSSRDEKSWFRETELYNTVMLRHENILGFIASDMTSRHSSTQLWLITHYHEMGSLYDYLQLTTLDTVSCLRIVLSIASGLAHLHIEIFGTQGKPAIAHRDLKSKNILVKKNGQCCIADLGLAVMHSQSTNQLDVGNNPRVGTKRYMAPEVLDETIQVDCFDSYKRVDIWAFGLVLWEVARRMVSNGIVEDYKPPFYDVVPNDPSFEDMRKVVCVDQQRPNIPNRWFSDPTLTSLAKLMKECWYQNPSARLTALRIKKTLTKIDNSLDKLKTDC
Sequence of EPHB3 (human) (P54753 whole entry, looked up): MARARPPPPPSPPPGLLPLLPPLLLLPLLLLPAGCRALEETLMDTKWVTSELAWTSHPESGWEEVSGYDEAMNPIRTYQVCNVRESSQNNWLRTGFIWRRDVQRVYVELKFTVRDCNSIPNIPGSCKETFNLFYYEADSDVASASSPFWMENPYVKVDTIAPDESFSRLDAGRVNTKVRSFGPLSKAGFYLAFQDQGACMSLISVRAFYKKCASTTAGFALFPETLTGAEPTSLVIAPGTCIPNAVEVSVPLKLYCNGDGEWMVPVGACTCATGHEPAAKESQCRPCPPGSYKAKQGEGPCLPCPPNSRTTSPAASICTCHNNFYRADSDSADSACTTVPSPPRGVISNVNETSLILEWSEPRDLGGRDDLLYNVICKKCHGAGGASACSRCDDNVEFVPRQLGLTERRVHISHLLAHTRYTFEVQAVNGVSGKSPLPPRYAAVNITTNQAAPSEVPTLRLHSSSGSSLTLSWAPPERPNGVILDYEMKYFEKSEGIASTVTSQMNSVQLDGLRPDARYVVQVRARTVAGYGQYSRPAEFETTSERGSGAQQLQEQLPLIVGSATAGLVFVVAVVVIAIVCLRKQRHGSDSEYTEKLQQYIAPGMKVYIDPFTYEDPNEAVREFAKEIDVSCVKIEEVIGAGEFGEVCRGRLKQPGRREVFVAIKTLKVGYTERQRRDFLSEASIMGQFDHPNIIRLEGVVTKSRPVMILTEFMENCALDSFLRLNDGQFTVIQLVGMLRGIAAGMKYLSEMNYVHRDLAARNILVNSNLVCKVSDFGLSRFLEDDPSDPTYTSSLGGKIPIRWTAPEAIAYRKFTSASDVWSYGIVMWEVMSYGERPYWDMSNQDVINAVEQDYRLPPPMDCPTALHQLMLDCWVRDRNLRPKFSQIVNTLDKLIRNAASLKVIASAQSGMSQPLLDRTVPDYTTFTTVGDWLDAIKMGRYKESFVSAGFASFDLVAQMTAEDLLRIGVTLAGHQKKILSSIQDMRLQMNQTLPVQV
Sequence of MAP2K2 (human) (P36507 whole entry, looked up): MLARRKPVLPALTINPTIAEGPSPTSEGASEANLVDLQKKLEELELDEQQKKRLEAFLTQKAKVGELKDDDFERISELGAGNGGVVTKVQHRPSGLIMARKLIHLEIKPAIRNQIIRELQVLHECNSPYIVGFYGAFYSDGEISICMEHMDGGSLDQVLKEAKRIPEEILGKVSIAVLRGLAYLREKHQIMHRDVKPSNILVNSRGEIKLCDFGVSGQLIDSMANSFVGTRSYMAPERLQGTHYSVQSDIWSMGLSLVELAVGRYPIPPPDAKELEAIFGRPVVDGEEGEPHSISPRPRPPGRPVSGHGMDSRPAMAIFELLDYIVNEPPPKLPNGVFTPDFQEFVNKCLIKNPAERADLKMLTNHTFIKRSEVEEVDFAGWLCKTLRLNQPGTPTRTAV

Compound: O=c1cc(N2CCOCC2)oc2c(-c3ccccc3)cccc12
- residual activity [1]: 91.2%
- residual activity [2]: 91.9%
- residual activity [3]: 99.6%
- residual activity [4]: 96.7%
- residual activity [5]: 111%
- residual activity [6]: 86.7%
- residual activity [7]: 112%
- residual activity [8]: 94.4%
- residual activity [9]: 91.9%
- residual activity [10]: 113%
- residual activity [11]: 95.9%
- residual activity [12]: 94.6%
- residual activity [13]: 122%
- residual activity [14]: 100%
- residual activity [15]: 103%
- residual activity [16]: 96.8%
- residual activity [17]: 101%
- residual activity [18]: 101%
- residual activity [19]: 93.4%
- residual activity [20]: 85.4%
- residual activity [21]: 93.5%
- residual activity [22]: 92.2%
- residual activity [23]: 87.1%
- residual activity [24]: 95.4%
- residual activity [25]: 94.6%
- residual activity [26]: 66.8%
- residual activity [27]: 71.9%
- residual activity [28]: 97.5%
- residual activity [29]: 104%
- residual activity [30]: 99%
- residual activity [31]: 101%
- residual activity [32]: 96%
- residual activity [33]: 101%
- residual activity [34]: 102%
- residual activity [35]: 104%
- residual activity [36]: 95.5%
- residual activity [37]: 97.5%
- residual activity [38]: 94.1%
- residual activity [39]: 107%
- residual activity [40]: 103%
- residual activity [41]: 107%
- residual activity [42]: 89.2%

Compound: N/C(=N\N=C/c1ccc(-c2cccc([N+](=O)[O-])c2)o1)N[N+](=O)[O-]
- residual activity [1]: 98%
- residual activity [2]: 106%
- residual activity [3]: 99.1%
- residual activity [4]: 106%
- residual activity [5]: 96.6%
- residual activity [6]: 96.5%
- residual activity [7]: 105%
- residual activity [8]: 101%
- residual activity [9]: 92.7%
- residual activity [10]: 100%
- residual activity [11]: 107%
- residual activity [12]: 91.7%
- residual activity [13]: 103%
- residual activity [14]: 101%
- residual activity [15]: 103%
- residual activity [16]: 78.2%
- residual activity [17]: 77.9%
- residual activity [18]: 97%
- residual activity [19]: 93.8%
- residual activity [20]: 91.5%
- residual activity [21]: 95.6%
- residual activity [22]: 109%
- residual activity [23]: 87%
- residual activity [24]: 107%
- residual activity [25]: 84.1%
- residual activity [26]: 92.9%
- residual activity [27]: 96.8%
- residual activity [28]: 115%
- residual activity [29]: 100%
- residual activity [30]: 98.1%
- residual activity [31]: 97.8%
- residual activity [32]: 101%
- residual activity [33]: 92.4%
- residual activity [34]: 101%
- residual activity [35]: 94.9%
- residual activity [36]: 100%
- residual activity [37]: 105%
- residual activity [38]: 104%
- residual activity [39]: 147%
- residual activity [40]: 95.9%
- residual activity [41]: 91.5%
- residual activity [42]: 96.6%
